Measured values reported in article PMC10648927, “Examining the activity of cefepime-taniborbactam against Burkholderia cepacia complex and Burkholderia gladioli isolated from cystic fibrosis patients in the United States” (Antimicrobial Agents and Chemotherapy, 2023).
In brackets after ≈: the same amount, converted by molar mass.

Experiments:
Set-up in all cases: agar dilution MIC, growth inhibition of clinical Burkholderia isolates
B. multivorans AU27706 = system: T1, B. multivorans AU27706; assay: microbe, parasite or virus in culture; conditions: Burkholderia multivorans, AU27706
T1 construct: AU27706
In short: (§1)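 MICs by agar dilution against Bcc and B. gladioli clinical isolates, interpreted with CLSI breakpoints where available; K. pneumoniae ATCC 700603 (SHV-18) and ATCC BAA-1705 (KPC) served as quality controls.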

B. cenocepacia AU20902 = system: T2, B. cenocepacia AU20902; assay: microbe, parasite or virus in culture; conditions: Burkholderia cenocepacia, AU20902
T2 construct: AU20902
In short: as §1

B. multivorans AU15954 = system: T3, B. multivorans AU15954; assay: microbe, parasite or virus in culture; conditions: Burkholderia multivorans, AU15954
T3 construct: AU15954
In short: as §1

B. multivorans AU26250 = system: T4, B. multivorans AU26250; assay: microbe, parasite or virus in culture; conditions: Burkholderia multivorans, AU26250
T4 construct: AU26250
In short: as §1

B. cepacia AU15677 = system: T5, B. cepacia AU15677; assay: microbe, parasite or virus in culture; conditions: Burkholderia cepacia, AU15677
T5 construct: AU15677
In short: as §1

[1] = system: T6, Burkholderia cepacia complex Bcc Indeterminate AU14915; assay: microbe, parasite or virus in culture; conditions: Burkholderia cepacia
T6 construct: AU14915
In short: as §1

B. cepacia AU11420 = system: T7, B. cepacia AU11420; assay: microbe, parasite or virus in culture; conditions: Burkholderia cepacia, AU11420
T7 construct: AU11420
In short: as §1

B. arboris AU24192 = system: T8, B. arboris AU24192; assay: organism not typed
T8 construct: AU24192
In short: as §1

B. contaminans AU20979 = system: T9, B. contaminans AU20979; assay: organism not typed
T9 construct: AU20979
In short: as §1

B. multivorans AU17545 = system: T10, B. multivorans AU17545; assay: microbe, parasite or virus in culture; conditions: Burkholderia multivorans, AU17545
T10 construct: AU17545
In short: as §1

B. gladioli AU21101 = system: T11, B. gladioli AU21101; assay: organism not typed
T11 construct: AU21101
In short: as §1

B. multivorans AU19729 = system: T12, B. multivorans AU19729; assay: microbe, parasite or virus in culture; conditions: Burkholderia multivorans, AU19729
T12 construct: AU19729
In short: as §1

B. multivorans AU12481 = system: T13, B. multivorans AU12481; assay: microbe, parasite or virus in culture; conditions: Burkholderia multivorans, AU12481
T13 construct: AU12481
In short: as §1

B. cenocepacia AU20998 = system: T14, B. cenocepacia AU20998; assay: microbe, parasite or virus in culture; conditions: Burkholderia cenocepacia, AU20998
T14 construct: AU20998
In short: as §1

B. multivorans AU30441 = system: T15, B. multivorans AU30441; assay: microbe, parasite or virus in culture; conditions: Burkholderia multivorans, AU30441
T15 construct: AU30441
In short: as §1

B. vietnamiensis AU19457 = system: T16, B. vietnamiensis AU19457; assay: microbe, parasite or virus in culture; conditions: Burkholderia vietnamiensis, AU19457
T16 construct: AU19457
In short: as §1

B. cepacia AU0108 = system: T17, B. cepacia AU0108; assay: microbe, parasite or virus in culture; conditions: Burkholderia cepacia, AU0108
T17 construct: AU0108
In short: as §1

B. cenocepacia AU22509 = system: T18, B. cenocepacia AU22509; assay: microbe, parasite or virus in culture; conditions: Burkholderia cenocepacia, AU22509
T18 construct: AU22509
In short: as §1

B. contaminans AU21811 = system: T19, B. contaminans AU21811; assay: organism not typed
T19 construct: AU21811
In short: as §1

B. cepacia AU27816 = system: T20, B. cepacia AU27816; assay: microbe, parasite or virus in culture; conditions: Burkholderia cepacia, AU27816
T20 construct: AU27816
In short: as §1

B. multivorans AU23919 = system: T21, B. multivorans AU23919; assay: microbe, parasite or virus in culture; conditions: Burkholderia multivorans, AU23919
T21 construct: AU23919
In short: as §1

B. cepacia AU19265 = system: T22, B. cepacia AU19265; assay: microbe, parasite or virus in culture; conditions: Burkholderia cepacia, AU19265
T22 construct: AU19265
In short: as §1

Compound	MIC (B. multivorans AU27706) [mg/L]	MIC (B. cenocepacia AU20902) [mg/L]	MIC (B. multivorans AU15954) [mg/L]	MIC (B. multivorans AU26250) [mg/L]	MIC (B. cepacia AU15677) [mg/L]	MIC [1] [mg/L]	MIC (B. cepacia AU11420) [mg/L]	MIC (B. arboris AU24192) [mg/L]	MIC (B. contaminans AU20979) [mg/L]	MIC (B. multivorans AU17545) [mg/L]	MIC (B. gladioli AU21101) [mg/L]	MIC (B. multivorans AU19729) [mg/L]	MIC (B. multivorans AU12481) [mg/L]	MIC (B. cenocepacia AU20998) [mg/L]	MIC (B. multivorans AU30441) [mg/L]	MIC (B. vietnamiensis AU19457) [mg/L]	MIC (B. cepacia AU0108) [mg/L]	MIC (B. cenocepacia AU22509) [mg/L]	MIC (B. contaminans AU21811) [mg/L]	MIC (B. cepacia AU27816) [mg/L]	further results
CO/N=C(\C(=O)N[C@@H]1C(=O)N2C(C(=O)[O-])=C(C[N+]3(C)CCCC3)CS[C@H]12)c1csc(N)n1 [cefepime]	1 (≈ 2.08 µM)	16 (≈ 33.3 µM)	8 (≈ 16.6 µM)	4 (≈ 8.32 µM)	32 (≈ 66.6 µM)	> 32	> 32	32 (≈ 66.6 µM)	> 32	16 (≈ 33.3 µM)	16 (≈ 33.3 µM)	> 32	2 (≈ 4.16 µM)	> 32	2 (≈ 4.16 µM)	> 32	8 (≈ 16.6 µM)	> 32	> 32	16 (≈ 33.3 µM)	MIC (B. multivorans AU23919): 32 mg/L (≈ 66.6 µM); MIC (B. cepacia AU19265): 32 mg/L (≈ 66.6 µM)
C[C@H]1COc2c(N3CCN(C)CC3)c(F)cc3c(=O)c(C(=O)O)cn1c23 [levofloxacin]	1 (≈ 2.77 µM)	4 (≈ 11.1 µM)	2 (≈ 5.53 µM)	2 (≈ 5.53 µM)	4 (≈ 11.1 µM)	16 (≈ 44.3 µM)	4 (≈ 11.1 µM)	4 (≈ 11.1 µM)	32 (≈ 88.6 µM)	8 (≈ 22.1 µM)	1 (≈ 2.77 µM)	16 (≈ 44.3 µM)	4 (≈ 11.1 µM)	> 32	2 (≈ 5.53 µM)	16 (≈ 44.3 µM)	2 (≈ 5.53 µM)	32 (≈ 88.6 µM)	8 (≈ 22.1 µM)	4 (≈ 11.1 µM)	MIC (B. multivorans AU23919): 2 mg/L (≈ 5.53 µM); MIC (B. cepacia AU19265): 4 mg/L (≈ 11.1 µM)
C[C@@H](O)[C@H]1C(=O)N2C(C(=O)O)=C(S[C@@H]3CN[C@H](C(=O)N(C)C)C3)[C@H](C)[C@H]12 [meropenem]	0.5 (≈ 1.3 µM)	4 (≈ 10.4 µM)	4 (≈ 10.4 µM)	2 (≈ 5.22 µM)	4 (≈ 10.4 µM)	16 (≈ 41.7 µM)	8 (≈ 20.9 µM)	8 (≈ 20.9 µM)	8 (≈ 20.9 µM)	2 (≈ 5.22 µM)	1 (≈ 2.61 µM)	16 (≈ 41.7 µM)	2 (≈ 5.22 µM)	8 (≈ 20.9 µM)	8 (≈ 20.9 µM)	4 (≈ 10.4 µM)	4 (≈ 10.4 µM)	8 (≈ 20.9 µM)	16 (≈ 41.7 µM)	4 (≈ 10.4 µM)	MIC (B. multivorans AU23919): 4 mg/L (≈ 10.4 µM); MIC (B. cepacia AU19265): 4 mg/L (≈ 10.4 µM)
